In the supplement of paper PMC10307832:

Tests used:
Assay in all cases: relative viability (nuclei count vs DMSO), 5 days (fraction); higher = more cells survive
VE-821 + Luminespib = compound: CS(=O)(=O)c1ccc(-c2cnc(N)c(C(=O)Nc3ccccc3)n2)cc1 [VE-821] + CCNC(=O)c1noc(-c2cc(C(C)C)c(O)cc2O)c1-c1ccc(CN2CCOCC2)cc1 [Luminespib] (partner 0.01 µM)
Method in brief: (§1)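 Relative viability was taken as the ratio of nuclei in treated wells to nuclei in vehicle wells. Lung cancer cell lines in 1536-well plates received compounds by pin tool one day after seeding, either one drug alone or a fixed anchor-drug dose plus five library-drug doses (not always all listed) in √10 steps. Nuclei were counted on 4× images after 5 days of treatment, and values are medians of duplicate plates.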

Ruxolitinib + Vorinostat = compound: N#CC[C@H](C1CCCC1)n1cc(-c2ncnc3[nH]ccc23)cn1 [Ruxolitinib] + O=C(CCCCCCC(=O)Nc1ccccc1)NO [Vorinostat] (partner 1 µM)
Method in brief: as §1

VE-821 + Dasatinib = compound: CS(=O)(=O)c1ccc(-c2cnc(N)c(C(=O)Nc3ccccc3)n2)cc1 [VE-821] + Cc1nc(Nc2ncc(C(=O)Nc3c(C)cccc3Cl)s2)cc(N2CCN(CCO)CC2)n1 [Dasatinib] (partner 0.075 µM)
Method in brief: as §1

Vismodegib + OSI-027 = compound: CS(=O)(=O)c1ccc(C(=O)Nc2ccc(Cl)c(-c3ccccn3)c2)c(Cl)c1 [Vismodegib] + COc1cccc2cc(-c3nc([C@H]4CC[C@H](C(=O)O)CC4)n4ncnc(N)c34)[nH]c12 [OSI-027] (partner 0.5 µM)
Method in brief: as §1

Row | Cell Line | relative viability (VE-821 + Luminespib; first compound 0.08 µM) | relative viability (VE-821 + Luminespib; first compound 0.253 µM) | relative viability (VE-821 + Luminespib; first compound 0.8 µM) | relative viability (VE-821 + Luminespib; first compound 2.53 µM) | relative viability (VE-821 + Luminespib; first compound 8 µM) | relative viability (Ruxolitinib + Vorinostat; first compound 0.08 µM) | relative viability (Ruxolitinib + Vorinostat; first compound 0.253 µM) | relative viability (Ruxolitinib + Vorinostat; first compound 0.8 µM) | relative viability (Ruxolitinib + Vorinostat; first compound 2.53 µM) | relative viability (Ruxolitinib + Vorinostat; first compound 8 µM) | relative viability (VE-821 + Dasatinib; first compound 0.08 µM) | relative viability (VE-821 + Dasatinib; first compound 0.253 µM) | relative viability (VE-821 + Dasatinib; first compound 0.8 µM) | relative viability (VE-821 + Dasatinib; first compound 2.53 µM) | relative viability (VE-821 + Dasatinib; first compound 8 µM) | relative viability (Vismodegib + OSI-027; first compound 0.08 µM) | relative viability (Vismodegib + OSI-027; first compound 0.253 µM) | relative viability (Vismodegib + OSI-027; first compound 0.8 µM) | relative viability (Vismodegib + OSI-027; first compound 2.53 µM) | relative viability (Vismodegib + OSI-027; first compound 8 µM)
1 | NCI-H3122 | 0.111 | 0.064 | 0.0908 | 0.0825 | 0.0706 | 0.886 | 1.12 | 1.13 | 0.962 | 1.02 | 0.946 | 0.726 | 0.83 | 0.874 | 0.694 | 0.971 | 0.863 | 0.84 | 0.849 | 0.981
2 | PC-3 [JPC-3] | 0.718 | 0.718 | 0.698 | 0.726 | 0.705 | – | 0.778 | 0.809 | 0.875 | 0.696 | 1.06 | 0.967 | 1.07 | 1.02 | 0.907 | 0.823 | 0.756 | 0.718 | 0.728 | 0.673
3 | PC-14 | 0.173 | 0.19 | 0.123 | 0.241 | 0.12 | – | 0.788 | 1.05 | 0.658 | 0.652 | 0.231 | 0.238 | 0.269 | 0.229 | 0.0835 | 0.748 | 0.686 | 0.797 | 0.738 | 0.836
4 | RERF-LC-KJ | 1.31 | 1.06 | 1.06 | 1.18 | 0.931 | 0.73 | 0.859 | 0.841 | 0.867 | 0.66 | 0.924 | 0.651 | 0.582 | 0.69 | 0.582 | 0.678 | 0.568 | 0.621 | 0.593 | 0.487
5 | SK-LU-1 | 0.177 | 0.203 | 0.193 | 0.203 | 0.164 | 0.763 | 0.856 | 0.747 | 0.805 | 0.53 | 0.17 | 0.19 | 0.163 | 0.16 | 0.12 | 0.414 | 0.39 | 0.384 | 0.401 | 0.345
6 | SK-MES-1 | 1.09 | 0.797 | 0.746 | 0.537 | 0.306 | 1.19 | 1.07 | 1.01 | 0.968 | 0.949 | 0.389 | 0.379 | 0.274 | 0.332 | 0.199 | 0.729 | 0.576 | 0.598 | 0.59 | 0.577
7 | SW 900 | 0.199 | 0.187 | 0.156 | 0.167 | 0.152 | 0.587 | 0.746 | 0.774 | 0.707 | 0.881 | 0.7 | 0.545 | 0.397 | 0.658 | 0.37 | 0.62 | 0.395 | 0.432 | 0.616 | 0.637
8 | SW 1573 | 0.21 | 0.228 | 0.214 | 0.226 | 0.165 | 0.927 | 1.08 | 0.995 | 0.584 | 0.727 | 0.49 | 0.573 | 0.551 | 0.503 | 0.218 | 0.742 | 0.595 | 0.682 | 0.521 | 0.574
